Source: patent US10479780B2, “Aminopyrazole derivatives” (Chugai Seiyaku Kabushiki Kaisha, priority 2015, dated 2019)

Experiments:
Type in all cases: biochemical
human Src enzyme = biological target: T1, human Src enzyme (Homo sapiens, UniProt P12931); experiment: Src enzyme inhibitory activity (time-resolved fluorometry, biotinylated peptide phosphorylation); details: biotinylated peptide phosphorylation, read-out: SRC_IC50
T1 construct: purchased Carna Biosciences, Inc. 08-173
In short: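 Compounds were tested for blocking tyrosine phosphorylation of a biotinylated peptide substrate by recombinant human Src. Phosphorylated product was quantified by time-resolved fluorometry using europium cryptate and XL665 conjugates, and IC50 was calculated against the compound-free control.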

human Yes1 enzyme = biological target: T2, human Yes1 enzyme (Homo sapiens, UniProt P07947); experiment: Yes1 enzyme inhibitory activity (time-resolved fluorometry, biotinylated peptide phosphorylation); details: biotinylated peptide phosphorylation, read-out: YES_IC50
T2 construct: made in house
T2 sequence (P07947 whole entry): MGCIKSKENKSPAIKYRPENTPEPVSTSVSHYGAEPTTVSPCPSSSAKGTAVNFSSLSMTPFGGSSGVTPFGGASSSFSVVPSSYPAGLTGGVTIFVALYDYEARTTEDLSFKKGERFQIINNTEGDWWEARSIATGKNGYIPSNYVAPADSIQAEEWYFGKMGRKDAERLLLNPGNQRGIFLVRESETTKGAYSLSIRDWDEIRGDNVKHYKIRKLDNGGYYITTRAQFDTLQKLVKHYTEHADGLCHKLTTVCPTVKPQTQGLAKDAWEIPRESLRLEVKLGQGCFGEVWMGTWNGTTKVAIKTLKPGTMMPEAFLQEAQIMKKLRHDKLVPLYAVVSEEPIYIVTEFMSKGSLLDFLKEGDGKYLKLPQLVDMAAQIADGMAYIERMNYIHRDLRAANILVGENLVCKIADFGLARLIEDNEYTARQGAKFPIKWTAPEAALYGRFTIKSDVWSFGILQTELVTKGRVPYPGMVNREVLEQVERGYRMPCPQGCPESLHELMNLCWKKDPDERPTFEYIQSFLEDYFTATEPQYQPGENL
In short: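 Inhibition was expressed against a compound-free control to give IC50, using TR-FRET read-out (Eu-cryptate anti-pTyr antibody, streptavidin-XL665).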

human Lck enzyme = biological target: T3, human Lck enzyme (Homo sapiens, UniProt P06239); experiment: Lck enzyme inhibitory activity (time-resolved fluorometry, biotinylated peptide phosphorylation); details: biotinylated peptide phosphorylation, read-out: LCK_IC50
T3 construct: purchased Carna Biosciences, Inc. 08-170
T3 sequence (P06239 whole entry): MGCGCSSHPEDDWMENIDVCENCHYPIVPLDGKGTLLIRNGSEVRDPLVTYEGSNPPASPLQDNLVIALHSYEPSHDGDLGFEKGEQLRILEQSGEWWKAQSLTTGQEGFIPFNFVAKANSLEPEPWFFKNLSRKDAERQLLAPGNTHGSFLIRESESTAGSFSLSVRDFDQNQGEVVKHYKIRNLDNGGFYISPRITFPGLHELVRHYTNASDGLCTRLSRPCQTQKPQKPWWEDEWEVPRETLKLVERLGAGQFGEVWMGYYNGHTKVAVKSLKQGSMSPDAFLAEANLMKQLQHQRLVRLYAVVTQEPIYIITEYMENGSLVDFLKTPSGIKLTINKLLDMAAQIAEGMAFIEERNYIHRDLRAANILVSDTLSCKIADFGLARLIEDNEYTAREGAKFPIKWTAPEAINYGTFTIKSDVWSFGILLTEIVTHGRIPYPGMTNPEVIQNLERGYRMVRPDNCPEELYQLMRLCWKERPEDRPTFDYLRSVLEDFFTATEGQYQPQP
In short: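 Readout pairs a europium cryptate-labelled anti-phosphotyrosine antibody with XL665-streptavidin, measured by time-resolved fluorescence. IC50 derived from percent inhibition against untreated controls.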

T1 sequence (P12931 whole entry): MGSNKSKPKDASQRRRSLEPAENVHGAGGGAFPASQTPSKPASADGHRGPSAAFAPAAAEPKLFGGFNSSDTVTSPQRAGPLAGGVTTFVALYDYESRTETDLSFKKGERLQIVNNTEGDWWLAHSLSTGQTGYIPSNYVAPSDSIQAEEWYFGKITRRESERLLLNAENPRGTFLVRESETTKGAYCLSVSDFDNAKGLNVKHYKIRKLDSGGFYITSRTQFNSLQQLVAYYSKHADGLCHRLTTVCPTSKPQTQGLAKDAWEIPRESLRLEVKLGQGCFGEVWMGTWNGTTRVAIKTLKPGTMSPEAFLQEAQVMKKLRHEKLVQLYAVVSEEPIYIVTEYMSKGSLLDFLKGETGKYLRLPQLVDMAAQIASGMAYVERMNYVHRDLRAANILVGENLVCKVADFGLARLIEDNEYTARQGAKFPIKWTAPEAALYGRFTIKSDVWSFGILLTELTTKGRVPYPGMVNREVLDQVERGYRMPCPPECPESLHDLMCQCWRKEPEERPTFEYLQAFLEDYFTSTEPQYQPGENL

| IC50 (human Src enzyme) | IC50 (human Yes1 enzyme) | IC50 (human Lck enzyme) | Structure (SMILES) |
| --- | --- | --- | --- |
| 520 nM | 6.8 nM | 110 nM | Cc1cc2cc(C(=O)c3cnn(-c4cnc(Oc5ccccc5F)cc4C)c3N)[nH]c2cc1NS(=O)(=O)c1cc(C(F)(F)F)ccn1 [Example 5-1-485, N-[2-[5-amino-1-[6-(2-fluorophenoxy)-4-methylpyridin-3-yl]pyrazole-4-carbonyl]-5-methyl-1H-indol-6-yl]-4-(trifluoromethyl) pyridine-2-sulfonamide] |
| 620 nM | 7.3 nM | 160 nM | Cc1cc2cc(C(=O)c3cnn(-c4cnc(Oc5ccccc5F)cc4C)c3N)[nH]c2cc1NS(=O)(=O)c1cccc(C(F)(F)F)n1 [Example 5-1-486, N-[2-[5-amino-1-[6-(2-fluorophenoxy)-4-methylpyridin-3-yl]pyrazole-4-carbonyl]-5-methyl-1H-indol-6-yl]-6-(trifluoromethyl) pyridine-2-sulfonamide] |
| 510 nM | 11 nM | 110 nM | Cc1cc2cc(C(=O)c3cnn(-c4cnc(Oc5ccccc5F)cc4C)c3N)[nH]c2cc1NS(=O)(=O)c1cncc(C(F)(F)F)c1 [Example 5-1-487, N-[2-[5-amino-1-[6-(2-fluorophenoxy)-4-methylpyridin-3-yl]pyrazole-4-carbonyl]-5-methyl-1H-indol-6-yl]-5-(trifluoromethyl) pyridine-3-sulfonamide] |
| 520 nM | 4.2 nM | 120 nM | Cc1cncc(S(=O)(=O)Nc2cc3[nH]c(C(=O)c4cnn(-c5cnc(Oc6ccccc6F)cc5C)c4N)cc3cc2C)c1 [Example 5-1-488, N-[2-[5-amino-1-[6-(2-fluorophenoxy)-4-methylpyridin-3-yl]pyrazole-4-carbonyl]-5-methyl-1H-indol-6-yl]-5-methylpyridine-3-sulfonamide] |
| 190 nM | 1.9 nM | 49 nM | Cc1cc(Oc2ccccc2F)ccc1-n1ncc(C(=O)c2cc3cc(F)c(NS(=O)(=O)c4cccnc4)cc3[nH]2)c1N [Example 5-1-489, N-[2-[5-amino-1-[4-(2-fluorophenoxy)-2-methylphenyl]pyrazole-4-carbonyl]-5-fluoro-1H-indol-6-yl]pyridine-3-sulfonamide] |
| 430 nM | 3.7 nM | 110 nM | Cc1cc(Oc2ccccc2F)ccc1-n1ncc(C(=O)c2cc3cc(F)c(NS(=O)(=O)c4cccc(C#N)c4)cc3[nH]2)c1N [Example 5-1-490, N-[2-[5-amino-1-[4-(2-fluorophenoxy)-2-methylphenyl]pyrazole-4-carbonyl]-5-fluoro-1H-indol-6-yl]-3-cyanobenzenesulfonamide] |
| 400 nM | 4.9 nM | 100 nM | Cc1cc(Oc2c(F)cccc2F)ncc1-n1ncc(C(=O)c2cc3cc(F)c(NS(=O)(=O)c4cccnc4)cc3[nH]2)c1N [Example 5-1-491, N-[2-[5-amino-1-[6-(2,6-difluorophenoxy)-4-methylpyridin-3-yl]pyrazole-4-carbonyl]-5-fluoro-1H-indol-6-yl]pyridine-3-sulfonamide] |
| 760 nM | 8 nM | 150 nM | Cc1cc(Oc2c(F)cccc2F)ncc1-n1ncc(C(=O)c2cc3cc(F)c(NS(=O)(=O)c4cccc(C#N)c4)cc3[nH]2)c1N [Example 5-1-492, N-[2-[5-amino-1-[6-(2,6-difluorophenoxy)-4-methylpyridin-3-yl]pyrazole-4-carbonyl]-5-fluoro-1H-indol-6-yl]-3-cyanobenzenesulfonamide] |
| 430 nM | 3 nM | 230 nM | Cc1cc2cc(C(=O)c3cnn(-c4cnc(Oc5ccccc5F)cc4C)c3N)[nH]c2cc1NS(=O)(=O)c1cncc(F)c1 [Example 5-1-494, N-[2-[5-amino-1-[6-(2-fluorophenoxy)-4-methylpyridin-3-yl]pyrazole-4-carbonyl]-5-methyl-1H-indol-6-yl]-5-fluoropyridine-3-sulfonamide] |
| 550 nM | 3.9 nM | 360 nM | Cc1cc2cc(C(=O)c3cnn(-c4cnc(Oc5ccccc5F)cc4C)c3N)[nH]c2cc1NS(=O)(=O)c1cncc(Cl)c1 [Example 5-1-495, N-[2-[5-amino-1-[6-(2-fluorophenoxy)-4-methylpyridin-3-yl]pyrazole-4-carbonyl]-5-methyl-1H-indol-6-yl]-5-chloropyridine-3-sulfonamide] |
| 1300 nM | 11 nM | 630 nM | COc1cc(F)cc(S(=O)(=O)Nc2cc3[nH]c(C(=O)c4cnn(-c5cnc(Oc6ccccc6F)cc5C)c4N)cc3cc2C)c1 [Example 5-1-496, N-[2-[5-amino-1-[6-(2-fluorophenoxy)-4-methylpyridin-3-yl]pyrazole-4-carbonyl]-5-methyl-1H-indol-6-yl]-3-fluoro-5-methoxybenzenesulfonamide] |
| 660 nM | 4.7 nM | 170 nM | Cc1cc2cc(C(=O)c3cnn(-c4cnc(Oc5ccccc5F)cc4C)c3N)[nH]c2cc1NS(=O)(=O)c1cc(F)cc(C#N)c1 [Example 5-1-497, N-[2-[5-amino-1-[6-(2-fluorophenoxy)-4-methylpyridin-3-yl]pyrazole-4-carbonyl]-5-methyl-1H-indol-6-yl]-3-cyano-5-fluorobenzenesulfonamide] |
| 1600 nM | 8.7 nM | 420 nM | Cc1cc2cc(C(=O)c3cnn(-c4cnc(Oc5ccccc5F)cc4C)c3N)[nH]c2cc1NS(=O)(=O)c1cc(Cl)cc(C#N)c1 [Example 5-1-498, N-[2-[5-amino-1-[6-(2-fluorophenoxy)-4-methylpyridin-3-yl]pyrazole-4-carbonyl]-5-methyl-1H-indol-6-yl]-3-chloro-5-cyanobenzenesulfonamide] |
| 1800 nM | 16 nM | 550 nM | Cc1cc2cc(C(=O)c3cnn(-c4cnc(Oc5ccccc5F)cc4C)c3N)[nH]c2cc1NS(=O)(=O)c1cc(C#N)cc(C(F)(F)F)c1 [Example 5-1-499, N-[2-[5-amino-1-[6-(2-fluorophenoxy)-4-methylpyridin-3-yl]pyrazole-4-carbonyl]-5-methyl-1H-indol-6-yl]-3-cyano-5-(trifluoromethyl)benzenesulfonamide] |
| 750 nM | 5.7 nM | 200 nM | Cc1cc2cc(C(=O)c3cnn(-c4cnc(Oc5ccccc5F)cc4C)c3N)[nH]c2cc1NS(=O)(=O)c1cccc(F)c1 [Example 5-1-500, N-[2-[5-amino-1-[6-(2-fluorophenoxy)-4-methylpyridin-3-yl]pyrazole-4-carbonyl]-5-methyl-1H-indol-6-yl]-3-fluorobenzenesulfonamide] |
| 570 nM | 4.8 nM | 190 nM | Cc1cc2cc(C(=O)c3cnn(-c4cnc(Oc5ccccc5F)cc4C)c3N)[nH]c2cc1NS(=O)(=O)c1c(F)cc(F)cc1F [Example 5-1-501, N-[2-[5-amino-1-[6-(2-fluorophenoxy)-4-methylpyridin-3-yl]pyrazole-4-carbonyl]-5-methyl-1H-indol-6-yl]-2,4,6-trifluorobenzenesulfonamide] |
| 350 nM | 2.3 nM | 110 nM | Cc1cc2cc(C(=O)c3cnn(-c4cnc(Oc5ccccc5F)cc4C)c3N)[nH]c2cc1NS(=O)(=O)c1cccc(F)n1 [Example 5-1-502, N-[2-[5-amino-1-[6-(2-fluorophenoxy)-4-methylpyridin-3-yl]pyrazole-4-carbonyl]-5-methyl-1H-indol-6-yl]-6-fluoropyridine-2-sulfonamide] |
